Laboratory results from patent publication US20100041597A1, “PEPTIDES TARGETED TO PROTEIN KINASE C ISOFORMS AND USES THEREOF” (priority 2005, published 2010).
Blank lines part the entries; values can stand above or below the substance they belong to.

How the values were obtained:
PKC-βII = test: Competitive binding assay using cell extracts (Western blot); set-up: species or system human; key: —: no detectable affinity; Low to very low affinity at 10X or 20X or both PRE concentrations in at least one cell line in the cell extract assay; Low affinity in purified isoform assay.; Moderate affinity at 10X or 20X or both PRE concentrations in at least one cell line in the cell extract assay.; High affinity at 10X or 20X or both PRE concentrations in at least one cell line in the cell extract assay; High affinity in purified isoform assay; conditions: Cell extract; PRE at 10X, 20X antibody concentration; Table 20
Experimental: (§1) Binding efficiency and specificity of the peptides PRE 2, 3, 4, 5, 6, 7, 8, 9, 10, 11, 12 and 13 (see Table 3) was also tested using cytoplasmic extracts from different cell lines expressing appropriate PKC isoforms as described for Example 1. Briefly, the protein cytoplasmic extracts were separated by electrophoresis and transferred onto nitrocellulose membranes by standard Western blotting procedures. The bands on the Western blots were detected with matching primary antibodies and alkaline phosphatase conjugated secondary antibody. The bands were then scanned and the relative density measurements obtained.
(§2) This procedure to assess the binding characteristics of the PREs is based on competition binding of the PRE with the primary anti-isoform PKC specific antibodies. The lower the measured band density, the greater the binding of the PRE to the PKC isoform. The PREs were added at 10 and 20 times (10×, 20×) the primary antibody concentration, according to classical competition between antigenic peptide and primary antibody. The following cell lines (obtained from the ATCC) were used: H661—NCI human lung carcinoma NSCLC; MDAMB231—human highly invasive breast cancer cell line from pleural effusion; LS180—human colon adenocarcinoma; LnCAP—human prostate adenocarcinoma; CCD16Lu—human lung fibroblasts; Du145—human prostate carcinoma brain metastasis, and T24—human bladder carcinoma.
(§3) In these cases, the 20× band density figures relative to control and 10× values were reliable.

PKC-ι = target: T1, PKC-ι (Homo sapiens, UniProt P41743); test: as above; set-up: key: —: no detectable affinity; Low to very low affinity at 10X or 20X or both PRE concentrations in at least one cell line in the cell extract assay; Low affinity in purified isoform assay.; Moderate affinity at 10X or 20X or both PRE concentrations in at least one cell line in the cell extract assay.; High affinity at 10X or 20X or both PRE concentrations in at least one cell line in the cell extract assay; High affinity in purified isoform assay; conditions: Cell extract; PRE at 10X, 20X antibody concentration; Table 20
T1 construct: cytoplasmic extracts from different cell lines expressing appropriate PKC isoforms; endogenous in cells; host or cells: MDAMB231, LnCAP, H661, CCD16Lu, Du145, LS180 (human, from ATCC)
T1 sequence (P41743 1-596): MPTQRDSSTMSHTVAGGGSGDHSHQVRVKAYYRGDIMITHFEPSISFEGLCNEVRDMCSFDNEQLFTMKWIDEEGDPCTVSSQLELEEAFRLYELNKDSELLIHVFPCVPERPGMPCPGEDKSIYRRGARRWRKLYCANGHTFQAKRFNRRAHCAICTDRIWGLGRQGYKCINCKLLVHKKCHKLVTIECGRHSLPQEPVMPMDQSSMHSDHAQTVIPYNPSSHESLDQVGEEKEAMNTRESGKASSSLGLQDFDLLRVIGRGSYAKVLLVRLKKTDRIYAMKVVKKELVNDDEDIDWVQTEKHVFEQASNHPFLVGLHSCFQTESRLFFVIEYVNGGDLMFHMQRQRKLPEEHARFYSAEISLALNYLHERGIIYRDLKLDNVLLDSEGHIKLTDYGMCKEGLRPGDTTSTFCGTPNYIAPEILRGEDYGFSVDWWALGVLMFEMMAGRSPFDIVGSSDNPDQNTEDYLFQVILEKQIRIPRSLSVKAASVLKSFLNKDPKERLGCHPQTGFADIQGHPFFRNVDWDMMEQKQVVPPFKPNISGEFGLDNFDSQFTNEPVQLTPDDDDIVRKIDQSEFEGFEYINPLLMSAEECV
Experimental: as §1, §2, §3

PKC-βI = PKC-βI (Homo sapiens, UniProt P05771); test: as above; set-up: cytoplasmic extracts from different cell lines expressing appropriate PKC isoforms; endogenous in cells; host or cells: H661, MDAMB231, LS180, T24; key to Affinity for PKC isoform βI: —: no detectable affinity; Low to very low affinity at 10X or 20X or both PRE concentrations in at least one cell line in the cell extract assay; Low affinity in purified isoform assay.; Moderate affinity at 10X or 20X or both PRE concentrations in at least one cell line in the cell extract assay.; High affinity at 10X or 20X or both PRE concentrations in at least one cell line in the cell extract assay; High affinity in purified isoform assay; conditions: Cell extract; PRE at 10X, 20X antibody concentration; Table 20
Experimental: as §1, §2, §3

[1] = tested on: IMR-32 neuroblastoma cells; test: In vitro toxicity test (fluorimetric DNA assay, Hoechst); assay type: cell-based, human
Experimental: (§4) In vitro cytotoxicity testing of the peptides PRE 3, PRE 4 and PRE 5 (see Table 3) was conducted following the general protocol outlined below (modified from “Fluorimetric DNA assay for cell growth estimation” Rao J, Otto W., Analytical Biochem. 207:186-192, 1992).
(§5) The assay was performed in 96 well plates, with 3,000 IMR-32 neuroblastoma cells seeded per well and 8 replicas were performed per treatment. The cells were pre-treated with either plain medium and a pinocytic endocytosis reagent (Molecular Probes) or medium containing the PRE under evaluation and the pinocytic endocytosis reagent. The cells were allowed to grow under conventional conditions for 3 days. The DNA content of each well was assessed at 24, 48 and 72 hours using Hoechst reagent according to standard procedures. The fluorescence intensity per well was measured using the plate reader “CytoFluor 2350” from Millipore. Excitation was 360 nm and emission was 460 nm. The number of cells is directly correlated to the DNA content.
(§6) The results are shown in Tables 11-13 as the average relative fluorescence intensity measured for the 8 replica wells, as well as the percentage of survival as compared with matching untreated controls.

[2] = as above; assay type: cell-based, human; conditions: human, IMR-32 neuroblastoma cells, read-out: % survival
Experimental: as §4, §5, §6

[3] = 2.5 mg/ml, 24 h, with pinocytic endocytosis reagent
[4] = 2.5 mg/ml, 48 h, with pinocytic endocytosis reagent
[5] = 2.5 mg/ml, 72 h, with pinocytic endocytosis reagent
[6] = 10 mg/ml, 24 h, with pinocytic endocytosis reagent
[7] = 10 mg/ml, 48 h, with pinocytic endocytosis reagent
[8] = 10 mg/ml, 72 h, with pinocytic endocytosis reagent

PKC-βI, sequence (P05771 2-671): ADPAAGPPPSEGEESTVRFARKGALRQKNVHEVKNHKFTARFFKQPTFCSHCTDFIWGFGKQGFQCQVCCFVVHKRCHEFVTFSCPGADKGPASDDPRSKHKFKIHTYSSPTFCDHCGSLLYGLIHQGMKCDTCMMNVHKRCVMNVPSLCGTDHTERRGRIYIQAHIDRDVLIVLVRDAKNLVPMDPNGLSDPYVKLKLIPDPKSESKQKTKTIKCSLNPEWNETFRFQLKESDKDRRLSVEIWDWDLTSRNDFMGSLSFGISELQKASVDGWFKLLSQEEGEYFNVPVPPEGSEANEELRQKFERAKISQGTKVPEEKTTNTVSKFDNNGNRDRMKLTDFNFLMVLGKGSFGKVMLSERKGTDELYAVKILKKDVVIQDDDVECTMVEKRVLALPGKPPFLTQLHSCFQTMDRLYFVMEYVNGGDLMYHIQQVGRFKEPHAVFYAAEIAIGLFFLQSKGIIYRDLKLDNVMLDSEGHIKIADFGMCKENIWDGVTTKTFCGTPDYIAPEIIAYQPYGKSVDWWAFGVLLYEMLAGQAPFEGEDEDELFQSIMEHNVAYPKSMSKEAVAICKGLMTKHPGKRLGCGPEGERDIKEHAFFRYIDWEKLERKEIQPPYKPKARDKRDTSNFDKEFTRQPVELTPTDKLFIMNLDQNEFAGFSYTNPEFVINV

Substance: Ac-AKGIQEVKGGDAQNLIGISI-NH2 [PRE 3]
Affinity for PKC isoform βII (PKC-βII): L
Affinity for PKC isoform ι (PKC-ι): L
Affinity for PKC isoform βI (PKC-βI): L
AFI (Average fluorescence intensity) [1, 3]: 193
AFI (Average fluorescence intensity) [1, 4]: 389
AFI (Average fluorescence intensity) [1, 5]: 871
AFI (Average fluorescence intensity) [1, 6]: 182
AFI (Average fluorescence intensity) [1, 7]: 334
AFI (Average fluorescence intensity) [1, 8]: 830
viability at 24 h, 2500 µg/mL [2, 3]: 127%
viability at 48 h, 2500 µg/mL [2, 4]: 150%
viability at 72 h, 2500 µg/mL [2, 5]: 123%
viability at 24 h, 10000 µg/mL [2, 6]: 120%
viability at 48 h, 10000 µg/mL [2, 7]: 129%
viability at 72 h, 10000 µg/mL [2, 8]: 117%

Substance: Ac-AKGIQEVKGGKDAQNLIGISI-NH2 [PRE 5]
Affinity for PKC isoform βII (PKC-βII): H
Affinity for PKC isoform βI (PKC-βI): H
AFI (Average fluorescence intensity) ([1]; 62.5 μg/ml, 24 h, 3000 cells/100 μl/well, Table 13): 717
AFI (Average fluorescence intensity) ([1]; 62.5 μg/ml, 48 h, Table 13): 1084
AFI (Average fluorescence intensity) ([1]; 62.5 μg/ml, 72 h, Table 13): 1290
AFI (Average fluorescence intensity) ([1]; 125 μg/ml, 24 h, Table 13): 593
AFI (Average fluorescence intensity) ([1]; 125 μg/ml, 48 h, Table 13): 991
AFI (Average fluorescence intensity) ([1]; 125 μg/ml, 72 h, Table 13): 1200
AFI (Average fluorescence intensity) ([1]; 250 μg/ml, 24 h, Table 13): 557
AFI (Average fluorescence intensity) ([1]; 250 μg/ml, 48 h, Table 13): 899
AFI (Average fluorescence intensity) ([1]; 250 μg/ml, 72 h, Table 13): 1150
AFI (Average fluorescence intensity) ([1]; 500 μg/ml, 24 h, Table 13): 492
AFI (Average fluorescence intensity) ([1]; 500 μg/ml, 48 h, Table 13): 891
AFI (Average fluorescence intensity) ([1]; 500 μg/ml, 72 h, Table 13): 1082
viability at 24 h, 62.5 µg/mL ([2]; 62.5 μg/ml, 24 h, Table 13): 113%
viability at 48 h, 62.5 µg/mL ([2]; 62.5 μg/ml, 48 h, Table 13): 117%
viability at 72 h, 62.5 µg/mL ([2]; 62.5 μg/ml, 72 h, Table 13): 100%
viability at 24 h, 125 µg/mL ([2]; 125 μg/ml, 24 h, Table 13): 94%
viability at 48 h, 125 µg/mL ([2]; 125 μg/ml, 48 h, Table 13): 107%
viability at 72 h, 125 µg/mL ([2]; 125 μg/ml, 72 h, Table 13): 93%
viability at 24 h, 250 µg/mL ([2]; 250 μg/ml, 24 h, Table 13): 88%
viability at 48 h, 250 µg/mL ([2]; 250 μg/ml, 48 h, Table 13): 97%
viability at 72 h, 250 µg/mL ([2]; 250 μg/ml, 72 h, Table 13): 89%
viability at 24 h, 500 µg/mL ([2]; 500 μg/ml, 24 h, Table 13): 78%
viability at 48 h, 500 µg/mL ([2]; 500 μg/ml, 48 h, Table 13): 96%
viability at 72 h, 500 µg/mL ([2]; 500 μg/ml, 72 h, Table 13): 84%

Substance: Ac-ISIGILQNADK-NH2 [PRE 7]
Affinity for PKC isoform ι (PKC-ι): —
Affinity for PKC isoform βI (PKC-βI): —

Substance: Ac-KDANQLIGISI-NH2 [PRE 6]
Affinity for PKC isoform ι (PKC-ι): —
Affinity for PKC isoform βI (PKC-βI): H

Substance: Ac-isigilgnadk-NH2 [PRE 9]
Affinity for PKC isoform βII (PKC-βII): —
Affinity for PKC isoform βI (PKC-βI): M

Substance: ILEDKGGDAQNLIGISI [PRE 8]
Affinity for PKC isoform βII (PKC-βII): H

Substance: RRKKGGKDFVVKR [PRE 1]
Affinity for PKC isoform ι (PKC-ι): —
Affinity for PKC isoform βI (PKC-βI): H

More lines, main results first:

Affinity for PKC isoform βI (PKC-βI): M
Substance: Ac-ISIGILNQADK-NH2 [PRE 10]
Affinity for PKC isoform βII (PKC-βII): —

Affinity for PKC isoform ι (PKC-ι): —
Affinity for PKC isoform βI (PKC-βI): —
Substance: Ac-KDAQNLI-NH2 [PRE 12]
Affinity for PKC isoform βII (PKC-βII): L

Affinity for PKC isoform ι (PKC-ι): —
Affinity for PKC isoform βI (PKC-βI): —
Substance: Ac-RDAQNLI-NH2 [PRE 13]

Affinity for PKC isoform βI (PKC-βI): H
Substance: Ac-RDAQNLIGISI-NH2 [PRE 11]
